Assay results reported in ChEMBL document CHEMBL5724914, “Linking interpersonal differences in gut microbiota composition and drug biotransformation activity” (2024).

Columns and labels:
[1] = (§1) The drug is tested on WLS-350 corresponding to human gut metagenome with ENA study accession number: PRJEB37062 and ENA sample accession number: ERS12561789 for biotransformation under anaerobic condition. The drug concentrations were measured over 9 timepoints collected between 0 and 24 hours of incubation by liquid-chromatography-coupled mass spectrometry (LC–MS); settings: 2 µM
[2] = as §1, with “Z-007” for “WLS-350”, “rat” for “human”, “ERS12561807” for “ERS12561789”; settings: 2 µM
[3] = as §1, with “WLS-310” for “WLS-350”, “ERS12561785” for “ERS12561789”; settings: 2 µM
[4] = human gut metagenome, 24 h, 2 µM
[5] = human gut metagenome, 24 h, 2 µM; remark: listed apart in the source
[6] = as §1, with “Z-024” for “WLS-350”, “pig” for “human”, “ERS12561823” for “ERS12561789”; settings: 2 µM
[7] = human gut metagenome, 24 h, 2 µM; remark: listed apart in the source
[8] = as §1, with “Z-018” for “WLS-350”, “pig” for “human”, “ERS12561817” for “ERS12561789”; settings: 2 µM
[9] = human gut metagenome, 24 h, 2 µM; remark: listed apart in the source
[10] = as §1, with “Z-003” for “WLS-350”, “pig” for “human”, “ERS12561803” for “ERS12561789”; settings: 2 µM
[11] = human gut metagenome, 24 h, 2 µM; remark: listed apart in the source
[12] = human gut metagenome, 24 h, 2 µM; remark: listed apart in the source
[13] = human gut metagenome, 24 h, 2 µM; remark: listed apart in the source
[14] = as §1, with “Z-001” for “WLS-350”, “mouse” for “human”, “ERS12561801” for “ERS12561789”; settings: 2 µM
[15] = as §1, with “WLS-220” for “WLS-350”, “ERS12561769” for “ERS12561789”; settings: 2 µM
[16] = as §1, with “WLS-006” for “WLS-350”, “ERS12561741” for “ERS12561789”; settings: 2 µM
[17] = human gut metagenome, 24 h, 2 µM; remark: listed apart in the source
[18] = as §1, with “Z-025” for “WLS-350”, “rabbit” for “human”, “ERS12561824” for “ERS12561789”; settings: 2 µM
[19] = as §1, with “Z-021” for “WLS-350”, “to” for “to human gut”, “ERS12561820” for “ERS12561789”; settings: 2 µM
[20] = human gut metagenome, 24 h, 2 µM; remark: listed apart in the source
Note: call rule not given here.

| Bacterial Biotransformation [20] | Structure (SMILES) | Bacterial Biotransformation [1] | Bacterial Biotransformation [2] | Bacterial Biotransformation [3] | Bacterial Biotransformation [4] | Bacterial Biotransformation [5] | Bacterial Biotransformation [6] | Bacterial Biotransformation [7] | Bacterial Biotransformation [8] | Bacterial Biotransformation [9] | Bacterial Biotransformation [10] | Bacterial Biotransformation [11] | Bacterial Biotransformation [12] | Bacterial Biotransformation [13] | Bacterial Biotransformation [14] | Bacterial Biotransformation [15] | Bacterial Biotransformation [16] | Bacterial Biotransformation [17] | Bacterial Biotransformation [18] | Bacterial Biotransformation [19] |
| --- | --- | --- | --- | --- | --- | --- | --- | --- | --- | --- | --- | --- | --- | --- | --- | --- | --- | --- | --- | --- |
|  | CC(C)C[C@H]1C(=O)N2CCC[C@H]2[C@]2(O)O[C@](NC(=O)[C@@H]3C=C4c5cccc6[nH]c(Br)c(c56)C[C@H]4N(C)C3)(C(C)C)C(=O)N12.CS(=O)(=O)O [BROMOCRIPTINE MESYLATE] | Compound metabolized | Compound metabolized | Compound metabolized | Compound metabolized | Compound metabolized | Compound metabolized | Compound NOT metabolized | Compound metabolized | Compound metabolized | Compound metabolized | Compound metabolized | Compound metabolized | Compound metabolized | Compound metabolized | Compound metabolized | Compound metabolized | Compound NOT metabolized | Compound metabolized | Compound metabolized |
| Compound metabolized | CC(=O)Nc1ccc(OC(C)=O)cc1 [DIACETAMATE] | Compound metabolized | Compound metabolized | Compound metabolized |  | Compound metabolized | Compound metabolized | Compound metabolized | Compound metabolized | Compound metabolized | Compound metabolized | Compound metabolized | Compound metabolized | Compound metabolized | Compound metabolized | Compound metabolized | Compound metabolized | Compound metabolized | Compound metabolized | Compound metabolized |
| Compound NOT metabolized | COc1cc(C(=O)NCc2ccc(OCCN(C)C)cc2)cc(OC)c1OC [TRIMETHOBENZAMIDE] | Compound NOT metabolized | Compound NOT metabolized | Compound NOT metabolized |  | Compound NOT metabolized | Compound NOT metabolized | Compound NOT metabolized | Compound NOT metabolized | Compound NOT metabolized | Compound NOT metabolized | Compound NOT metabolized | Compound NOT metabolized | Compound NOT metabolized | Compound NOT metabolized | Compound NOT metabolized | Compound NOT metabolized | Compound NOT metabolized | Compound NOT metabolized | Compound NOT metabolized |

| Structure (SMILES) | Bacterial Biotransformation [20] | Bacterial Biotransformation [1] | Bacterial Biotransformation [2] | Bacterial Biotransformation [3] | Bacterial Biotransformation [4] | Bacterial Biotransformation [5] | Bacterial Biotransformation [6] | Bacterial Biotransformation [7] | Bacterial Biotransformation [8] | Bacterial Biotransformation [9] | Bacterial Biotransformation [10] | Bacterial Biotransformation [11] | Bacterial Biotransformation [12] | Bacterial Biotransformation [13] | Bacterial Biotransformation [14] | Bacterial Biotransformation [15] | Bacterial Biotransformation [16] | Bacterial Biotransformation [17] | Bacterial Biotransformation [18] | Bacterial Biotransformation [19] |
| --- | --- | --- | --- | --- | --- | --- | --- | --- | --- | --- | --- | --- | --- | --- | --- | --- | --- | --- | --- | --- |
| COc1cc2nc(N3CCN(C(=O)C4COc5ccccc5O4)CC3)nc(N)c2cc1OC.CS(=O)(=O)O (stereo unspecified) [DOXAZOSIN MESYLATE] | Compound metabolized | Compound metabolized | Compound NOT metabolized | Compound metabolized |  | Compound metabolized | Compound NOT metabolized | Compound metabolized | Compound metabolized | Compound metabolized | Compound NOT metabolized | Compound NOT metabolized | Compound metabolized | Compound NOT metabolized | Compound NOT metabolized | Compound metabolized | Compound metabolized | Compound metabolized | Compound NOT metabolized | Compound NOT metabolized |
